Laboratory results published in US12662451B2, “Chemical compounds and uses thereof” (GLAXOSMITHKLINE INTELLECTUAL PROPERTY (NO.4) LIMITED, priority 2023, dated 2026).
Structures can show the parent of a compound that is named as a salt. Where two headings read alike, the source gives them in different places.

Assays:
[1] = system: SW48 human colorectal cancer cells; assay: Calculated free drug potency in SW48 cell assay, corrected with media free fraction (Example C); type: cell-based; settings: Homo sapiens, SW48, SW48 pCC50 corrected with measured free fraction in cell assay media
Summary of the method: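 Free drug potency derives from correcting SW48 assay concentrations with the unbound fraction in medium. That fraction came from RED against pH 7.4 PBS, 1 μM nominal compound, 4 h at 37 °C, quantified by LC-MS/MS peak area ratios at T=240 versus T=0 min.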

[2] = molecular target: T1, recombinant full-length WRN protein (1-1432) (Homo sapiens, UniProt Q14191); assay: WRN unwinding activity, fluorogenic 384-well assay (Example A); type: biochemical; settings: WRN unwinding activity, 4 hr; Table 2; read-out: 4 hr UNW pIC50 (converted)
T1 construct: recombinant full-length WRN protein (1-1432)
Summary of the method: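 Read-out is end-point unwinding of a fluorophore/quencher duplex (ex 525, em 598 nm) after 60 min with 200 μM ATP and 12 nM DNA (2× stocks), EDTA stop. Compound first sat 4 h with 200 pM WRN (2× stock) in pH 8.0 Tris buffer; four-parameter fit gives pIC50.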

[3] = system: SW48 human colorectal cancer cells (MSI-H cancer cells); assay: SW48 cell viability, CellTiter-Glo, 120 hours (Example B); settings: Homo sapiens
Method: SW48 human colorectal cancer cells (MSI-H cancer cells) were obtained from the American Type Culture Collection and maintained in growth medium composed of RPMI-1640 supplemented with 10% fetal bovine serum. Cells were maintained in a humidified 5% CO2 incubator at 37° C. Cell dissociation was conducted using TrypLE Select to detach cells from culture flasks. Following dissociation, cells were centrifuged briefly and resuspended in assay medium RPMI-1640+10% fetal bovine serum. Black 384-well assay plates were prepared from source plates of DMSO and compounds dissolved in DMSO prior to cell dispensation. These source plates were prepared in eleven point, 3-fold serial dilutions from 10 mM stocks stored at 4° C. Compounds and DMSO controls were dispensed into assay plates at 150 nanoliters per well from source plates using Labcyte Echo 555 or Echo 655T dispensers with Column 6 and Column 18 containing DMSO only. Cells were then seeded into prepared assay plates in 50 microliters assay medium at 250 cells per well into Columns 1 thru 17 and Columns 19-24. Assay medium without cells was added to column 18 to serve as a surrogate for 100% cell cytotoxicity. Following incubation for 120 hours in a humidified 5% CO2 incubator at 37° C., cellular ATP concentration of each well was measured and used as a surrogate of cell viability. This was performed by adding 50 microliters of CellTiter-Glo reagent to each well followed by a 10-minute incubation at room temperature. Luminescence was measured on a Synergy Neo or Synergy Neo2 multimode plate reader. Compound cytotoxic response (% C) was normalized to the robust means of column 6 (Control 1, 0% Cytotoxicity) and column 18 (Control 2, 100% Cytotoxicity) and normalized % cytotoxicity (% C) calculated. % C=100−100*((Compound−Control 2)/(Control1−Control2)). These normalized data were then used to determine a 50% cytotoxic response (CC50) using 4-parameter logistic curve model 201 in Activity Base XE:
[formula] • where A=minimum asymptote (% cytotoxicity), B=maximum asymptote (% cytotoxicity), C=Log CC50 (pCC50), D=Hill slope, and x=[inhibitor], (M).

[4] = Cell culture media unbound percentage and stability by rapid equilibrium dialysis (Example C); type: in vitro ADME; settings: bovine, cell assay medium (RPMI-1640 with 10% fetal bovine serum), pH 7.4, rapid equilibrium dialysis, 4 hours at 37° C., read-out: Cell Culture Media Binding (% unbound)
Summary of the method: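 Percent unbound in cell assay medium came from the LC-MS/MS receiver:donor peak area ratio, with stability taken as the 240 min over 0 min ratio. Set-up: 1 μM nominal compound in medium dialysed against pH 7.4 PBS (100 mM phosphate, 150 mM NaCl), 4 h, 37° C, shaken, in triplicate.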

[5] = SW48, 120 h, read-out: SW48 pCC50, SW48 cell viability, 120 hours incubation (converted), Table 2
[6] = SW48, read-out: SW48 pCC50, measured potency from Example B, as repeated in Table 3 (converted)

T1 sequence (Q14191 whole entry): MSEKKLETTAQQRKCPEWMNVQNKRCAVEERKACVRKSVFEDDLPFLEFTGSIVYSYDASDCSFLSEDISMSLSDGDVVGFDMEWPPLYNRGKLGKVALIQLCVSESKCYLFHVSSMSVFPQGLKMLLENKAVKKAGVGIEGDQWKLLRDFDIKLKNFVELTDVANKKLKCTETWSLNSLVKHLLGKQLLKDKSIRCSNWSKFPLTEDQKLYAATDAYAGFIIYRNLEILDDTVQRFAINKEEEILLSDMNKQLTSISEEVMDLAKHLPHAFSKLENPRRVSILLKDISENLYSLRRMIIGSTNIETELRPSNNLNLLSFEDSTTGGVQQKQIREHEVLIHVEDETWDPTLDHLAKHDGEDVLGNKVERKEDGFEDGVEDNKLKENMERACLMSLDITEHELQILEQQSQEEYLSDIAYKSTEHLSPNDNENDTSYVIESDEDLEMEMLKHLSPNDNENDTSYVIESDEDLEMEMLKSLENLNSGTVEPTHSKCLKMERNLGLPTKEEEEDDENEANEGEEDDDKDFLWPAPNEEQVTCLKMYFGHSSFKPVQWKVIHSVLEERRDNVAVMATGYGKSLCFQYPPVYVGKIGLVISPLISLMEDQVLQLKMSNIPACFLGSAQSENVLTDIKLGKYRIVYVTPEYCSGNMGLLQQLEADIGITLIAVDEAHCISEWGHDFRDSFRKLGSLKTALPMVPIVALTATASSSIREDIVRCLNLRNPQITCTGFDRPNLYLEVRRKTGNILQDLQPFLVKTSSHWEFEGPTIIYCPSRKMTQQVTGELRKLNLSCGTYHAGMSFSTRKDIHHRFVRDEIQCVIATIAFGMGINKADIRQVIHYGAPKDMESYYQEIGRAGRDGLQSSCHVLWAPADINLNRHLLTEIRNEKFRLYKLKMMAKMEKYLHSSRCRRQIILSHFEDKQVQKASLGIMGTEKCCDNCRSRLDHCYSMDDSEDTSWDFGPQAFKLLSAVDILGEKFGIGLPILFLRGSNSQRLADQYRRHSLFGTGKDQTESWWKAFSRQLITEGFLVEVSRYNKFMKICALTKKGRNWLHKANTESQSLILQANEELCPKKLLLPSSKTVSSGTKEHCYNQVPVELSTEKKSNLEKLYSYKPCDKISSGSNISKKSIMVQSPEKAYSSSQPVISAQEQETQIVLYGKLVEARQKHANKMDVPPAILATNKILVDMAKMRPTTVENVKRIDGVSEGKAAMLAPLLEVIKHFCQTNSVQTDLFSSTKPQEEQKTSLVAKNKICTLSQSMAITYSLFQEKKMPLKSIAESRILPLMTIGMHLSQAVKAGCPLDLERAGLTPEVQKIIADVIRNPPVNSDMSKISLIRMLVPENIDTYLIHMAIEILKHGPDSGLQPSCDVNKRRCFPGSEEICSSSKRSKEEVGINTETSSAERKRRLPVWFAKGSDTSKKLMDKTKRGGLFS

Compound	CC50 [1] [nM]	IC50 [2] [nM]	CC50 [3, 5] [nM]	CC50 [3, 6] [nM]	fraction unbound at 4 h, 1 µM [4]
CCCO[C@@H]1C[C@H](c2ccc(N(C)S(=O)(=O)c3ccc4c(c3)nc(C)n4C)cc2)[C@@H](C(=O)O)[C@H](C(=O)Nc2ccc(C(F)(F)F)cc2F)C1 (stereo in doubt) [Example 151, rel-(1R,2R,4R,6S)-2-((2-fluoro-4-(trifluoromethyl)phenyl)carbamoyl)-4-propoxy-6-(4-((N,1,2-trimethyl-1H-benzo[d]imidazole)-5-sulfonamido)phenyl)cyclohexane-1-carboxylic acid]	11.7	3.16	501	501	0.0233
Cc1nc2cc(S(=O)(=O)N(C)c3ccc([C@H]4C[C@@H](OCC5CCC5)C[C@@H](C(=O)Nc5ccc(C(F)(F)F)cc5F)[C@@H]4C(=O)O)cc3)ccc2n1C (stereo in doubt) [Example 154, rel-(1R,2R,4R,6S)-4-(cyclobutylmethoxy)-2-((2-fluoro-4-(trifluoromethyl)phenyl)carbamoyl)-6-(4-((N,1,2-trimethyl-1H-benzo[d]imidazole)-5-sulfonamido)phenyl)cyclohexane-1-carboxylic acid]	5.01	3.98	398	398	0.0127
Cc1nc2cc(S(=O)(=O)N(C)c3ccc([C@@H]4CCC[C@H](COc5ccc(C(F)(F)F)cc5)[C@H]4C(=O)O)cc3)cc([C@H]3CCCNC3)c2n1C (stereo in doubt) [Example 208, rel-(1R,2R,6S)-2-((4-(trifluoromethyl)phenoxy)methyl)-6-(4-((N,1,2-trimethyl-7-((R)-piperidin-3-yl)-1H-benzo[d]imidazole)-5-sulfonamido)phenyl)cyclohexane-1-carboxylic acid, hydrochloride]	36.3	1.58	1260	1260	0.0289
Cc1nc2cc(S(=O)(=O)N(C)c3ccc([C@H]4C[C@@H](N(C)C)C[C@@H](C(=O)Nc5ccc(C(F)(F)F)cc5F)[C@@H]4C(=O)O)cc3)ccc2n1C (stereo in doubt) [Example 251, rel-(1R,2R,4R,6S)-4-(dimethylamino)-2-((2-fluoro-4-(trifluoromethyl)phenyl)carbamoyl)-6-(4-((N,1,2-trimethyl-1H-benzo[d]imidazole)-5-sulfonamido)phenyl)cyclohexane-1-carboxylic acid]	138	1	501	501	0.274
Cc1nc2cc(S(=O)(=O)N(C)c3ccc([C@H]4C[C@@H](OC(F)F)C[C@@H](C(=O)Nc5ccc(C(F)(F)F)cc5F)[C@@H]4C(=O)O)cc3)ccc2n1C (stereo in doubt) [Example 284, rel-(1R,2R,4R,6S)-4-(difluoromethoxy)-2-((2-fluoro-4-(trifluoromethyl)phenyl)carbamoyl)-6-(4-((N,1,2-trimethyl-1H-benzo[d]imidazole)-5-sulfonamido)phenyl)cyclohexane-1-carboxylic acid]	13.5	3.16	200	200	0.068
CC(=O)N(C)[C@@H]1C[C@H](c2ccc(N(C)S(=O)(=O)c3ccc4c(c3)nc(C)n4C)cc2)[C@@H](C(=O)O)[C@H](C(=O)Nc2ccc(C(F)(F)F)cc2F)C1 (stereo in doubt) [Example 292, rel-(1R,2R,4R,6S)-2-((2-fluoro-4-(trifluoromethyl)phenyl)carbamoyl)-4-(N-methylacetamido)-6-(4-((N,1,2-trimethyl-1H-benzo[d]imidazole)-5-sulfonamido)phenyl)cyclohexane-1-carboxylic acid]	178	1.58	794	794	0.223
CC(=O)N(C)[C@H]1C[C@H](c2ccc(N(C)S(=O)(=O)c3ccc4c(c3)nc(C)n4C)cc2)[C@@H](C(=O)O)[C@H](C(=O)Nc2ccc(C(F)(F)F)cc2F)C1 (stereo in doubt) [Example 294, rel-(1R,2R,4S,6S)-2-((2-fluoro-4-(trifluoromethyl)phenyl)carbamoyl)-4-(N-methylacetamido)-6-(4-((N,1,2-trimethyl-1H-benzo[d]imidazole)-5-sulfonamido)phenyl)cyclohexane-1-carboxylic acid]	1620	1.58	6310	6310	0.256
Cc1nc2cc(S(=O)(=O)N(C)c3ccc([C@H]4C[C@@H](N)C[C@@H](C(=O)Nc5ccc(C(F)(F)F)cc5F)[C@@H]4C(=O)O)cc3)ccc2n1C (stereo in doubt) [Example 301, rel-(1R,2R,4R,6S)-4-amino-2-((2-fluoro-4-(trifluoromethyl)phenyl)carbamoyl)-6-(4-((N,1,2-trimethyl-1H-benzo[d]imidazole)-5-sulfonamido)phenyl)cyclohexane-1-carboxylic acid]	1620	1.58	3980	3980	0.406
CC(=O)N1C[C@H](c2ccc(N(C)S(=O)(=O)c3ccc4c(c3)nc(C)n4C)cc2)[C@@H](C(=O)O)[C@H](C(=O)Nc2ccc(C(F)(F)F)cc2F)C1 (stereo in doubt) [Example 310, rel-(3R,4S,5R)-1-acetyl-3-((2-fluoro-4-(trifluoromethyl)phenyl)carbamoyl)-5-(4-((N,1,2-trimethyl-1H-benzo[d]imidazole)-5-sulfonamido)phenyl)piperidine-4-carboxylic acid]	437	1.58	1580	1580	0.273
Cc1nc2cc(S(=O)(=O)N(C)c3ccc([C@H]4C[C@@H](OC(C)C)C[C@@H](C(=O)Nc5ccc(C(F)(F)F)cc5F)[C@@H]4C(=O)O)cc3)ccc2n1C (stereo in doubt) [Example 311, rel-(1R,2R,4R,6S)-2-((2-fluoro-4-(trifluoromethyl)phenyl)carbamoyl)-4-isopropoxy-6-(4-((N,1,2-trimethyl-1H-benzo[d]imidazole)-5-sulfonamido)phenyl)cyclohexane-1-carboxylic acid]	21.4	2.51	251	251	0.0856
Cc1nc2cc(S(=O)(=O)N(C)c3ccc([C@H]4C[C@@H](OCC5CC5)C[C@@H](C(=O)Nc5ccc(C(F)(F)F)cc5F)[C@@H]4C(=O)O)cc3)ccc2n1C (stereo in doubt) [Example 314, rel-(1R,2R,4R,6S)-4-(cyclopropylmethoxy)-2-((2-fluoro-4-(trifluoromethyl)phenyl)carbamoyl)-6-(4-((N,1,2-trimethyl-1H-benzo[d]imidazole)-5-sulfonamido)phenyl)cyclohexane-1-carboxylic acid]	12.6	1.58	158	158	0.0795
COCCO[C@@H]1C[C@H](C(=O)Nc2ccc(C(F)(F)F)cc2F)[C@@H](C(=O)O)[C@H](c2ccc(N(C)S(=O)(=O)c3ccc4c(c3)nc(C)n4C)cc2)C1 (stereo in doubt) [Example 315, rel-(1R,2R,4R,6S)-2-((2-fluoro-4-(trifluoromethyl)phenyl)carbamoyl)-4-(2-methoxyethoxy)-6-(4-((N,1,2-trimethyl-1H-benzo[d]imidazole)-5-sulfonamido)phenyl)cyclohexane-1-carboxylic acid]	3800	63.1	10000		0.384
COCCO[C@@H]1C[C@H](c2ccc(N(C)S(=O)(=O)c3ccc4c(c3)nc(C)n4C)cc2)[C@@H](C(=O)O)[C@H](C(=O)Nc2ccc(C(F)(F)F)cc2F)C1 (stereo in doubt) [Example 316, rel-(1R,2R,4R,6S)-2-((2-fluoro-4-(trifluoromethyl)phenyl)carbamoyl)-4-(2-methoxyethoxy)-6-(4-((N,1,2-trimethyl-1H-benzo[d]imidazole)-5-sulfonamido)phenyl)cyclohexane-1-carboxylic acid]	30.2	1.58	158	158	0.19
Cc1nc2cc(S(=O)(=O)N(C)c3ccc([C@H]4C[C@@H](OC[C@H]5CCOC5)C[C@@H](C(=O)Nc5ccc(C(F)(F)F)cc5F)[C@@H]4C(=O)O)cc3)ccc2n1C (stereo in doubt) [Example 317, (1R*,2R*,4R*,6S*)-2-((2-fluoro-4-(trifluoromethyl)phenyl)carbamoyl)-4-(((S)-tetrahydrofuran-3-yl)methoxy)-6-(4-((N,1,2-trimethyl-1H-benzo[d]imidazole)-5-sulfonamido)phenyl)cyclohexane-1-carboxylic acid]	12	1.58	79.4	79.4	0.15
